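Exposure lasted 48 hours, with cells grown in 96-well plates and compounds tested at five concentrations. GI50: concentration for 50% inhibition of growth.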 Active and inactive are the calls of the source. Rule as the data show it: active = GI50 up to about 1.1 µM and inactive = higher.
Tests used:
Assay in all cases: inhibition of tumour cell growth, NCI panel, 48 h
HCT-15 = tested on: HCT-15
HT-29 = tested on: HT-29
HOP-62 = tested on: HOP-62
COLO 205 = tested on: COLO 205
HCC 2998 = tested on: HCC 2998
SF-539 = tested on: SF-539
NCI-H23 = tested on: NCI-H23
K562 = tested on: K562
Hs-578T = tested on: Hs-578T
CAKI-1 = tested on: CAKI-1
A498 = tested on: A498
NCI-H460 = tested on: NCI-H460
NCI-H226 = tested on: NCI-H226
SF-268 = tested on: SF-268
SW-620 = tested on: SW-620
OVCAR-8 = tested on: OVCAR-8
SK-MEL-28 = tested on: SK-MEL-28
SK-OV-3 = tested on: SK-OV-3
DU-145 = tested on: DU-145
MOLT-4 = tested on: MOLT-4
ACHN = tested on: ACHN
MDA-MB-231 = tested on: MDA-MB-231
OVCAR-3 = tested on: OVCAR-3
UACC-257 = tested on: UACC-257
MDA-MB-435 = tested on: MDA-MB-435
UACC-62 = tested on: UACC-62
U-251 = tested on: U-251
SF-295 = tested on: SF-295
IGROV-1 = tested on: IGROV-1
SK-MEL-2 = tested on: SK-MEL-2
NCI/ADR-RES = tested on: NCI/ADR-RES
M14 = tested on: M14
NCI-H522 = tested on: NCI-H522
SNB-19 = tested on: SNB-19
KM12 = tested on: KM12
SNB-75 = tested on: SNB-75
MCF7 = tested on: MCF7
Malme-3M = tested on: Malme-3M
TK-10 = tested on: TK-10
LOX IMVI = tested on: LOX IMVI
OVCAR-5 = tested on: OVCAR-5
RPMI-8226 = tested on: RPMI-8226
SN12C = tested on: SN12C
786-0 = tested on: 786-0
T47D = tested on: T47D
PC-3 = tested on: PC-3
CCRF-CEM = tested on: CCRF-CEM
HCT-116 = tested on: HCT-116
OVCAR-4 = tested on: OVCAR-4
RXF 393 = tested on: RXF 393
A549 = tested on: A549
BT-549 = tested on: BT-549
EKVX = tested on: EKVX
HL-60 = tested on: HL-60
UO-31 = tested on: UO-31
SK-MEL-5 = tested on: SK-MEL-5
MDA-N = tested on: MDA-N
SR = tested on: SR

Measured: GI50

O=CN1CCN(C(=O)c2ccc(Cl)c(Cl)c2)C1=S
19.3 µM: HCT-15
inactive: HT-29 19.4 µM | HOP-62 16.1 µM | COLO 205 20 µM | HCC 2998 18.5 µM | SF-539 20.7 µM | NCI-H23 20.9 µM | K562 13.8 µM | Hs-578T 39.5 µM | CAKI-1 14.9 µM | A498 15.8 µM | NCI-H460 19.2 µM | NCI-H226 20.7 µM | SF-268 22.2 µM | SW-620 19.4 µM | OVCAR-8 15 µM | SK-MEL-28 18.2 µM | SK-OV-3 18.9 µM | DU-145 15.7 µM | MOLT-4 22.8 µM | ACHN 17.3 µM | MDA-MB-231 14.6 µM | OVCAR-3 15 µM | UACC-257 17.7 µM | MDA-MB-435 16.6 µM | UACC-62 16 µM | U-251 12.5 µM | SF-295 17.9 µM | IGROV-1 15.1 µM | SK-MEL-2 15.3 µM | NCI/ADR-RES 32.9 µM | M14 16.8 µM | NCI-H522 4.93 µM | SNB-19 17.5 µM | KM12 15.7 µM | SNB-75 17.5 µM | MCF7 4.63 µM | Malme-3M 20.5 µM | TK-10 16.5 µM | LOX IMVI 9.29 µM | OVCAR-5 16.9 µM | RPMI-8226 2.84 µM | SN12C 13.6 µM | 786-0 4.53 µM | T47D 15.3 µM | PC-3 14.7 µM | CCRF-CEM 7.13 µM | HCT-116 16.3 µM | OVCAR-4 18.2 µM | RXF 393 17.5 µM | A549 17.7 µM | BT-549 18 µM | EKVX 17.5 µM | HL-60 24.6 µM

C=C(Br)CNC(=O)CCC(=O)NCC(=C)Br
> 100 µM: HCT-15
inactive: HT-29 > 100 µM | HOP-62 > 100 µM | COLO 205 > 100 µM | HCC 2998 > 100 µM | SF-539 > 100 µM | NCI-H23 > 100 µM | K562 > 100 µM | Hs-578T > 100 µM | UO-31 > 100 µM | CAKI-1 > 100 µM | A498 > 100 µM | SK-MEL-5 > 100 µM | NCI-H460 > 100 µM | NCI-H226 > 100 µM | SF-268 > 100 µM | SW-620 > 100 µM | OVCAR-8 > 100 µM | SK-MEL-28 > 100 µM | SK-OV-3 > 100 µM | DU-145 > 100 µM | MOLT-4 > 100 µM | ACHN > 100 µM | MDA-MB-231 > 100 µM | OVCAR-3 > 100 µM | UACC-257 > 100 µM | MDA-MB-435 > 100 µM | UACC-62 > 100 µM | U-251 > 100 µM | SF-295 > 100 µM | IGROV-1 > 100 µM | MDA-N > 100 µM | SK-MEL-2 > 100 µM | NCI/ADR-RES > 100 µM | M14 > 100 µM | NCI-H522 > 100 µM | SNB-19 > 100 µM | KM12 > 100 µM | SNB-75 > 100 µM | MCF7 > 100 µM | Malme-3M > 100 µM | SR > 100 µM | TK-10 > 100 µM | LOX IMVI > 100 µM | OVCAR-5 > 100 µM | RPMI-8226 > 100 µM | SN12C > 100 µM | 786-0 > 100 µM | T47D > 100 µM | PC-3 > 100 µM | CCRF-CEM > 100 µM | HCT-116 > 100 µM | OVCAR-4 > 100 µM | RXF 393 > 100 µM | A549 > 100 µM | EKVX > 100 µM | HL-60 > 100 µM

Source: ChEMBL document CHEMBL1201862, “PubChem BioAssay data set” (2004)
